The numbers were not newly measured in patent publication US6653500B2, “Method for the manufacture of Anagrelide” (Shire US Inc., priority 2000, dated 2003), which cites them from elsewhere.

The structures appear in SMILES notation. Where two headings read alike, the source gives them in different places.

The conditions of data set [1]: solid.
The conditions of data set [2]: humans, radiolabeled base.
The conditions of data set [3]: monkeys, radiolabeled base.

With `O=C1CN2Cc3c(ccc(Cl)c3Cl)N=C2N1` [compound III, 6,7-dichloro-1,5-dihydroimidazo[2,1-b]quinazolin-2(3H)-one], the “solubility in most organic solvents” value is “low”. For the same compound, the aqueous solubility entry in data set [1] is reported as “low”. Besides, the “absorption into blood plasma” value in data set [2] is reported as “complete absorption”. For the same compound, the “absorption into blood plasma” value in data set [3] is given as “complete absorption”.
